In patent US8354522B2, “Immunostimulatory oligoribonucleotides” (Coley Pharmaceutical GmbH, priority 2005, dated 2013):
Like-named read-outs stand apart in the source and are kept apart here.

System: Human PBMC
Assay: Cytokine production upon human PBMC stimulation (ORN complexed to DOTAP, 16 h, ELISA)
Format: cell-based
Parameters: key to IFN-alpha / TNF-alpha: +: cytokine production; −: no cytokine production
Settings: for EC50 / IFN-alpha max activity / TNF-alpha max activity: human PBMC, ORN complexed to DOTAP, 16 h; for EC50: full titration 2 μM to 0.9 nM; for IFN-alpha max activity / TNF-alpha max activity: mean max activity at 0.6 μM, 3-6 blood donors; for IFN-alpha / TNF-alpha: human PBMC stimulated for 16 h, supernatant ELISA
Procedure: Human peripheral blood mononuclear cells (PBMCs) were isolated from healthy donors, plated, and stimulated in vitro with various test and control immunostimulatory agents for 16 hours. After 16 hours, the supernatants were collected and then analyzed by ELISA assay. N-U-R1-R2,-Containing Oligoribonucleotides were tested complexed to DOTAP and with full titration curves (7 concentrations), starting from 2 μM ORN complexed to 25 μg/ml DOTAP and with 1/3 dilution steps. Also included were certain negative controls, including medium alone and DOTAP (25 μg/ml culture well; “Liposomes”) alone. The control immunostimulatory agents included the imidazoquinoline R-848 (2 μM with 1/3 dilution steps and 7 concentrations) the reported ligand for TLR7, ORN having TLR8 motifs such as AU and AUU sequences (SEQ ID NO:13-SEQ ID NO:15) ORN having TLR7/8 motifs such as CU, GU and GUU sequences (SEQ ID NO:19-SEQ ID NO:23).
Human PBMC were stimulated with ORN complexed to DOTAP. After 16 hours supernatants were harvested and TNF-alpha and IFN-alpha levels were measured. Mean/Max activities at 0.6 μM of 3-6 blood donors and two individual experiments were determined. […] TLR8 and TLR7/8 ORN are divided by a red line.
Human PBMC were stimulated with ORN complexed to DOTAP. After 16 hours supernatants were harvested and IFN-alpha levels were measured. Mean/Max activities at 0.6 μM and EC50 of full titration curves (range: 2 μM to 0.9 nM) of 3-6 blood donors and two individual experiments were determined. […] Low EC50/high Max activity represents TLR7/8 ORN (FIG. 5a) whereas high EC50 and low Max activity represents TLR8 ORN (FIG. 5b).
The ORN sequences listed in Table 1 were tested for IFN-alpha and TNF-alpha production upon human PBMC stimulation. Human PBMC were stimulated for 16 h with the indicated ORN, and supernatants were harvested and cytokine production measured by ELISA. Table 2 summarizes the min/max activity and EC50 of ORN for IFN-alpha and TNF-alpha production.

Substance: C*C*G*A*G*C*C*G*C*A*U*U*C*C*C*C (CCGAGCCGCAUUCCCC; listed as RNA, chemistry not fully specified) [SEQ ID NO: 54]
- EC50 (read-out: IFN-alpha EC50): 780 nM
- EC50 (read-out: TNF-alpha EC50): 339 nM
- IFN-alpha max activity: 1233 pg/mL
- TNF-alpha max activity: 12595 pg/mL

Substance: C*C*G*A*G*C*C*G*A*U*A*U*U*A*C*C (CCGAGCCGAUAUUACC; listed as RNA, chemistry not fully specified) [SEQ ID NO: 65]
- EC50 (read-out: IFN-alpha EC50): 1130 nM
- EC50 (read-out: TNF-alpha EC50): 77 nM
- IFN-alpha max activity: 335.2 pg/mL
- TNF-alpha max activity: 39377 pg/mL

Substance: C*C*G*A*G*C*C*G*C*U*A*U*A*C*C*C (CCGAGCCGCUAUACCC; listed as RNA, chemistry not fully specified) [SEQ ID NO: 37]
- EC50 (read-out: IFN-alpha EC50): ≥ 1500 nM
- EC50 (read-out: TNF-alpha EC50): 750 nM
- IFN-alpha max activity: 240.5 pg/mL
- TNF-alpha max activity: 22800 pg/mL

Substance: C*C*G*A*G*C*C*G*A*A*G*G*U*A*C*C (CCGAGCCGAAGGUACC; listed as RNA, chemistry not fully specified) [SEQ ID NO: 82]
- EC50 (read-out: IFN-alpha EC50): > 2000 nM
- EC50 (read-out: TNF-alpha EC50): 219 nM
- IFN-alpha max activity: 204 pg/mL
- TNF-alpha max activity: 12595 pg/mL

Substance: C*C*G*A*G*C*C*G*C*C*U*A*A*C*C*C (CCGAGCCGCCUAACCC; listed as RNA, chemistry not fully specified) [SEQ ID NO: 43]
- EC50 (read-out: IFN-alpha EC50): > 2000 nM
- EC50 (read-out: TNF-alpha EC50): 954 nM
- IFN-alpha max activity: 144.3 pg/mL
- TNF-alpha max activity: 10261 pg/mL

Substance: U*A*U*A*U*A*U (UAUAUAU; phosphorothioate linkages, chemistry not fully specified) [SEQ ID NO: 33]
- IFN-alpha: −
- TNF-alpha: +

Substance: A*U*A*G*G*C*A*C (AUAGGCAC; phosphorothioate linkages, chemistry not fully specified) [SEQ ID NO: 4]
- IFN-alpha: −
- TNF-alpha: +

Substance: C*C*G*A*G*C*C*G*C*U*A*U*C*C*C*C (CCGAGCCGCUAUCCCC; listed as RNA, chemistry not fully specified) [SEQ ID NO: 55]
- EC50 (read-out: IFN-alpha EC50): > 2000 nM
- EC50 (read-out: TNF-alpha EC50): 337 nM
- IFN-alpha max activity: 224.4 pg/mL
- TNF-alpha max activity: 15154 pg/mL

Substance: C*C*G*A*G*C*C*G*A*U*U*U*C*A*C*C (CCGAGCCGAUUUCACC; listed as RNA, chemistry not fully specified) [SEQ ID NO: 71]
- EC50 (read-out: IFN-alpha EC50): 51 nM
- EC50 (read-out: TNF-alpha EC50): 160 nM
- IFN-alpha max activity: 1626 pg/mL
- TNF-alpha max activity: 45164 pg/mL

Substance: C*C*G*A*G*C*C*G*A*U*G*U*U*A*C*C (CCGAGCCGAUGUUACC; listed as RNA, chemistry not fully specified) [SEQ ID NO: 66]
- EC50 (read-out: IFN-alpha EC50): 558 nM
- EC50 (read-out: TNF-alpha EC50): 51 nM
- IFN-alpha max activity: 1616 pg/mL
- TNF-alpha max activity: 43098 pg/mL

Substance: C*C*G*A*G*C*C*G*C*C*U*A*C*C*C*C (CCGAGCCGCCUACCCC; listed as RNA, chemistry not fully specified) [SEQ ID NO: 47]
- EC50 (read-out: IFN-alpha EC50): ≥ 1500 nM
- EC50 (read-out: TNF-alpha EC50): 566 nM
- IFN-alpha max activity: 271.9 pg/mL
- TNF-alpha max activity: 14265 pg/mL

Substance: C*U*A*G*G*C*A*C (CUAGGCAC; phosphorothioate linkages, chemistry not fully specified) [SEQ ID NO: 3]
- IFN-alpha: −
- TNF-alpha: +

Substance: U*U*G*U*U*G*U (UUGUUGU; phosphorothioate linkages, chemistry not fully specified) [SEQ ID NO: 29]
- IFN-alpha: +
- TNF-alpha: +

Substance: I*U*A*I*U*A*I*U*A*I*U*A*I*U*A*I*U*A*I*U (NUANUANUANUANUANUANU; inosine, phosphorothioate linkages, chemistry not fully specified) [SEQ ID NO: 27]
- IFN-alpha: +
- TNF-alpha: +

Substance: C*C*G*A*G*C*C*G*A*A*U*C*C*C*C*C (CCGAGCCGAAUCCCCC; listed as RNA, chemistry not fully specified) [SEQ ID NO: 44]
- EC50 (read-out: IFN-alpha EC50): ≥ 1500 nM
- EC50 (read-out: TNF-alpha EC50): 321 nM
- IFN-alpha max activity: 305.6 pg/mL
- TNF-alpha max activity: 19473 pg/mL
